Legend:
COLO 205 cells = experiment: MTS cytotoxicity test with COLO 205 cells; type: cell-based, human; conditions: Homo sapiens, COLO 205, 72 h, 3 days
Procedure: The assay, which is sold in kit form by Promega (Madison, Wis.; CellTiter 96 AQueous Non-Radioactive Cell Proliferation Assay), is based on the conversion by viable cells, but not by dead cells, of the tetrazolium salt, MTS (3-(4,5-dimethylthiazol-2-yl)-5-(3-carboxymethoxyphenyl)-2-(4-sulphophenyl)-2H-tetrazolium, inner salt), into a water-soluble colored formazan which is detected by spectrophotometry. Compounds are tested at nine concentrations, in order to determine IC50 values. For the test procedure, cells are harvested by trypsinization (or, in the case of non-adherent cells, by simple resuspension), washed, counted and distributed to wells of 96-well flat-bottom microtiter plates at 1000 cells per well in 200 μL of medium. In addition, one row of wells on a separate plate received cells as above (“time 0” plate). All plates are incubated at 37° in humidified 5% CO2 in air for about 24 hr.
On day 2, compounds for test are diluted and added to wells. Compounds are dissolved in DMSO at 10 mg/mL. For each compound, nine serial 2-fold dilutions are prepared in DMSO. Ten μL of each dilution in DMSO is transferred to 100 μL of medium, mixed well, and then 5 μL of this dilution is transferred in quadruplicate to wells containing cells. The final high concentration of each compound is typically 5 μM. Plates are returned to the incubator for three days. At the time of drug addition to the experimental plates, the MTS assay is run on the “time 0” plate. This produced the “time 0 MTS value” which is related to the number of viable cells per well at the time of drug addition.
After three days of culture with test compounds (day 5 overall), the MTS assay is done on all wells of the experimental plates. The absorbance values of the quadruplicate sample wells are averaged and divided by the average of the “time 0” values. The average of control wells without drug, divided by the average “time 0” value, gave the maximal relative increase in MTS color yield due to cell growth during the final three days of culture. The average of control wells with high drug concentration, divided by the “time 0” value, gave the minimal relative color yield for cells that are completely killed. The nine values for each compound are plotted against concentration, and the concentration that produced a relative color yield half way between the maximum and minimum is taken as the IC50 value.
COLO 205 is a human colon carcinoma cell line that is used for comparative testing of the examples of this invention and several reference compounds. This line is sensitive to paclitaxel and vincristine.

MAP-rich tubulin = experiment: Tubulin polymerization test with MAP-rich tubulin; type: biochemical, bovine; conditions: 0.3 μM compound, 20 min, fold enhancement over control
Procedure: Medium is RPMI-1640 with L-glutamine, supplemented with 10% heat-inactivated fetal calf serum, 100 units/ml penicillin, and 100 μg/ml streptomycin (Gibco, Grand Island, N.Y.). Microtubule-associated protein (MAP)-rich tubulin, containing about 70% tubulin and 30% MAPs (#ML113), and highly purified tubulin (>99% pure, #TL238), both from bovine brain, are obtained from Cytoskeleton, Inc., Denver, Colo. PEM buffer (80 mM piperazine-N,N′-bis[2-ethanesulfonic acid], pH 6.9, 1 mM ethylene glycol-bis(β-aminoethyl ether)-N,N,N′,N′-tetraacetic acid, 1 mM magnesium chloride) and guanosine 5′-triphosphate (GTP) are also obtained from Cytoskeleton. [3H]paclitaxel, specific activity 14.7 Ci/mmol, is purchased from Moravek Biochemicals (Brea, Calif.). [^3H]vinblastine, specific activity 9.60 Ci/mmol and MicroSpin G-50 columns are obtained from Amersham Biosciences (Piscataway, N.J.). […] Other reagents are obtained from Sigma (St. Louis, Mo.).
Two variations of this procedure are done, one using MAP-rich tubulin and one using pure tubulin.
MAP-rich tubulin is dissolved in ice-cold PEM buffer containing 1 mM GTP (GPEM buffer) at a concentration of 1.3 mg/mL. The solution is centrifuged at top speed in an Eppendorf model 5415C microcentrifuge (Brinkmann Instruments, Westbury, N.Y.) for 10 min at […] immediately before use. The tubulin solution is added to wells of a ½-area 96-well plate (Costar No. 3696, Corning, Inc., Corning, N.Y.) already containing the compounds of interest. Each compound is tested in duplicate at a final concentration of 0.3 μM in a volume of 110 μL per well. The final DMSO concentration in all wells is 0.3%. Control reactions, which received compound solvent only, are done in quadruplicate. The plate is put in a SpectraMax Plus plate reader (Molecular Devices Corp. Sunnyvale, Calif.) thermostated at 24° and the absorbance of each well at 340 nm, a measure of the appearance of turbidity due to tubulin polymer formation, is determined every minute for 60 minutes. The absorbance at time 0 for each well is subtracted from each of the subsequent absorbance readings for that well, and then the duplicates are averaged.
In this assay, control reactions with MAP-rich tubulin show an S-shaped absorbance profile characterized by three phases: first, a lag phase during which no change in absorbance occurs; second, a polymerization phase in which absorbance increases; and third, a plateau phase in which absorbance has reached a maximum and little or no further change occurs. Polymerization enhancers such as paclitaxel and docetaxel shorten or eliminate the lag phase, increase the rate of the polymerization phase, and often increase the height of the plateau. […] The compounds of this invention have a taxane-like effect on the polymerization reaction. This has been expressed quantitatively in Table 5 by dividing the mean A340 of each sample at 20 min by the mean A340 of the control at 20 min to give a fold enhancement over control. […] Examples of this invention have factors ranging up to 8.1, with the majority in the 5 to 6-fold range.

Row | SMILES | IC50 (COLO 205 cells) | A340 Compound/A340 Control (MAP-rich tubulin)
1 | C[C@H](Nc1c(-c2c(F)cc(OCCN(C)C)cc2F)c(Cl)nc2ncnn12)C(F)(F)F [Example 16, 5-Chloro-6-{4-[2-(dimethylamino)ethoxy]-2,6-difluorophenyl}-N-[(1S)-2,2,2-trifluoro-1-methylethyl][1,2,4]triazolo[1,5-a]pyrimidin-7-amine] | 581 nM | 2.4
2 | C[C@H](Nc1c(-c2c(F)cc(OCCN3CCOCC3)cc2F)c(Cl)nc2ncnn12)C(F)(F)F [Example 17, 5-Chloro-6-[2,6-difluoro-4-(2-morpholin-4-ylethoxy)phenyl]-N-[(1S)-2,2,2-trifluoro-1-methylethyl][1,2,4]triazolo[1,5-a]pyrimidin-7-amine] | 245 nM | 4.8
3 | C[C@H](Nc1c(-c2c(F)cc(SCCCN(C)C)cc2F)c(Cl)nc2ncnn12)C(F)(F)F [Example 18, 5-Chloro-6-(4-{[3-(dimethylamino)propyl]thio}-2,6-difluorophenyl)-N-[(1S)-2,2,2-trifluoro-1-methylethyl][1,2,4]triazolo[1,5-a]pyrimidin-7-amine] | 192 nM | 5.8
4 | C[C@H](Nc1c(-c2c(F)cc(N(C)CCCN(C)C)cc2F)c(Cl)nc2ncnn12)C(F)(F)F [Example 22, N^1-[4-(5-Chloro-7-{[(1S)-2,2,2-trifluoro-1-methylethyl]amino}[1,2,4]triazolo[1,5-a]pyrimidin-6-yl)-3,5-difluorophenyl]-N′,N^3,N^3-trimethylpropane-1,3-diamine] | 1670 nM | 1.2
5 | C[C@H](Nc1c(-c2c(F)cc(NCCCN(C)C)cc2F)c(Cl)nc2ncnn12)C(F)(F)F [Example 23, N^1-[4-(5-Chloro-7-{[(1S)-2,2,2-trifluoro-1-methylethyl]amino}[1,2,4]triazolo[1,5-a]pyrimidin-6-yl)-3,5-difluorophenyl]-N^3,N^3-dimethylpropane-1,3-diamine] | 719 nM | 4.2
6 | C[C@H](Nc1c(-c2c(F)cc(NCCN(C)C)cc2F)c(Cl)nc2ncnn12)C(F)(F)F [Example 24, N^1-[4-(5-Chloro-7-{[(1S)-2,2,2-trifluoro-1-methylethyl]amino}[1,2,4]triazolo[1,5-a]pyrimidin-6-yl)-3,5-difluorophenyl]-N^2,N^2-dimethylethane-1,2-diamine] | 1730 nM | 1.2
7 | C[C@H](Nc1c(-c2c(F)cc(CCCCN(C)C)cc2F)c(Cl)nc2ncnn12)C(F)(F)F [Example 26, 5-Chloro-6-{4-[4-(dimethylamino)butyl]-2,6-difluorophenyl}-N-[(1S)-2,2,2-trifluoro-1-methylethyl][1,2,4]triazolo[1,5-a]pyrimidin-7-amine] | 665 nM | 4.6

Reference: US7507739B2, “6-[(substituted)phenyl]triazolopyrimidines as anticancer agents” (Wyeth, priority 2003, dated 2009)
